Data as given in ChEMBL document CHEMBL1777761, “Tryptamine derivatives as novel non-nucleosidic inhibitors against hepatitis B virus” (Bioorg Med Chem, 2011).

Assays:
[1] = Selectivity index, ratio of CC50 for human HepG2.2.15 cells to IC50 for Hepatitis B virus; type: functional
[2] = Cytotoxicity against human HepG2(2.2.15) cells after 8 days by MTT assay; type: cell-based
Hepatitis B virus = experiment: Antiviral activity against Hepatitis B virus infected in human HepG2(2.2.15) cells assessed as inhibition of viral DNA replication after 4 days by RT-PCR analysis; type: functional, organism-based; conditions: HepG2 2.2.15, 96 h

[O-][N+](CCc1c[nH]c2ccccc12)(Cc1cccs1)Cc1cccs1
Ratio CC50/IC50 [1]: >10.6 | CC50 at 192 h [2]: > 100 µM | IC50 (Hepatitis B virus): 9.4 µM

c1ccc(CN(CCc2c[nH]c3ccccc23)Cc2ccccn2)nc1
CC50 at 192 h [2]: 5.8 µM | IC50 (Hepatitis B virus): > 25 µM

CCCN(CCc1c[nH]c2ccccc12)CCC(C)C
Ratio CC50/IC50 [1]: >1.25 | CC50 at 192 h [2]: > 25 µM | IC50 (Hepatitis B virus): 20 µM

COc1cc(OC)c(OC)cc1CN(CCc1c[nH]c2ccccc12)Cc1cc(OC)c(OC)cc1OC
Ratio CC50/IC50 [1]: 17.2 | CC50 at 192 h [2]: 21 µM | IC50 (Hepatitis B virus): 1.2 µM

CC(C)CCNCCc1c[nH]c2ccccc12
CC50 at 192 h [2]: > 25 µM | IC50 (Hepatitis B virus): > 25 µM

CCN(CC)CCc1c[nH]c2ccccc12 [DIETHYLTRYPTAMINE]
CC50 at 192 h [2]: > 100 µM | IC50 (Hepatitis B virus): > 100 µM

[O-][N+](CCc1c[nH]c2ccccc12)(CC1CCCCC1)CC1CCCCC1
CC50 at 192 h [2]: 23.1 µM | IC50 (Hepatitis B virus): > 100 µM

[O-][N+](CCc1c[nH]c2ccccc12)(Cc1ccco1)Cc1ccco1
Ratio CC50/IC50 [1]: >13.3 | CC50 at 192 h [2]: > 100 µM | IC50 (Hepatitis B virus): 7.5 µM

CC(C)CCN(CCc1c[nH]c2ccccc12)Cc1ccco1
Ratio CC50/IC50 [1]: >4.7 | CC50 at 192 h [2]: > 25 µM | IC50 (Hepatitis B virus): 5.3 µM

c1ccc2c(CCN(CC3CC3)CC3CC3)c[nH]c2c1
Ratio CC50/IC50 [1]: >16.7 | CC50 at 192 h [2]: > 100 µM | IC50 (Hepatitis B virus): 6 µM

CC(C)C[N+]([O-])(CCc1c[nH]c2ccccc12)CC(C)C
CC50 at 192 h [2]: > 100 µM | IC50 (Hepatitis B virus): > 100 µM

CC(C)CCN(CCc1cn(S(=O)(=O)c2ccccc2)c2ccccc12)CCC(C)C
CC50 at 192 h [2]: 15 µM | IC50 (Hepatitis B virus): > 25 µM

CC(C)CN(CCc1c[nH]c2ccccc12)CC(C)C
Ratio CC50/IC50 [1]: >8.2 | CC50 at 192 h [2]: > 100 µM | IC50 (Hepatitis B virus): 12.2 µM

CC(C)CCN(CCc1c[nH]c2ccccc12)CC(C)C
Ratio CC50/IC50 [1]: >23 | CC50 at 192 h [2]: > 25 µM | IC50 (Hepatitis B virus): 1.1 µM

C[N+](C)([O-])CCc1c[nH]c2ccc(O)cc12
Ratio CC50/IC50 [1]: >25 | CC50 at 192 h [2]: > 25 µM | IC50 (Hepatitis B virus): < 1 µM

[O-][N+](CCc1c[nH]c2ccccc12)(Cc1ccccn1)Cc1ccccn1
CC50 at 192 h [2]: 56.5 µM | IC50 (Hepatitis B virus): > 100 µM

CCCN(CCC)CCc1c[nH]c2ccccc12
CC50 at 192 h [2]: > 100 µM | IC50 (Hepatitis B virus): > 100 µM

C[N+](C)([O-])CCc1c[nH]c2ccccc12
Ratio CC50/IC50 [1]: >5.7 | CC50 at 192 h [2]: > 100 µM | IC50 (Hepatitis B virus): 17.6 µM

c1coc(CN(CCc2c[nH]c3ccccc23)Cc2ccco2)c1
Ratio CC50/IC50 [1]: 7.8 | CC50 at 192 h [2]: 27.3 µM | IC50 (Hepatitis B virus): 3.5 µM

C[N+](C)([O-])CCc1c[nH]c2ccc(Br)cc12
Ratio CC50/IC50 [1]: >4.6 | CC50 at 192 h [2]: > 25 µM | IC50 (Hepatitis B virus): 5.4 µM

c1ccc(CN(CCc2c[nH]c3ccccc23)Cc2ccccc2)cc1
Ratio CC50/IC50 [1]: 0.95 | CC50 at 192 h [2]: 12.4 µM | IC50 (Hepatitis B virus): 13 µM

[O-][N+](CCc1c[nH]c2ccccc12)(Cc1ccccc1)Cc1ccccc1
CC50 at 192 h [2]: > 100 µM | IC50 (Hepatitis B virus): > 100 µM

CC(C)CCN(C)CCc1c[nH]c2ccccc12
CC50 at 192 h [2]: > 25 µM | IC50 (Hepatitis B virus): > 25 µM

CN(C)CCc1c[nH]c2ccccc12 [N,N-DIMETHYLTRYPTAMINE]
CC50 at 192 h [2]: > 100 µM | IC50 (Hepatitis B virus): > 100 µM

C[N+](C)([O-])CCc1c[nH]c2ccc(Cl)cc12
Ratio CC50/IC50 [1]: >3 | CC50 at 192 h [2]: > 25 µM | IC50 (Hepatitis B virus): 8.4 µM

CC[N+]([O-])(CC)CCc1c[nH]c2ccccc12
CC50 at 192 h [2]: > 100 µM | IC50 (Hepatitis B virus): > 100 µM

CCC[N+]([O-])(CCC)CCc1c[nH]c2ccccc12
CC50 at 192 h [2]: > 100 µM | IC50 (Hepatitis B virus): > 100 µM

O=[N+]([O-])c1cccc(CN(CCc2c[nH]c3ccccc23)Cc2cccc([N+](=O)[O-])c2)c1
CC50 at 192 h [2]: > 100 µM | IC50 (Hepatitis B virus): > 100 µM

CCN(CCc1c[nH]c2ccccc12)CCC(C)C
CC50 at 192 h [2]: > 25 µM | IC50 (Hepatitis B virus): > 25 µM

c1csc(CN(CCc2c[nH]c3ccccc23)Cc2cccs2)c1
Ratio CC50/IC50 [1]: >8.5 | CC50 at 192 h [2]: > 33.3 µM | IC50 (Hepatitis B virus): 3.9 µM

CC(C)CCN(CCc1c[nH]c2ccccc12)Cc1cccs1
Ratio CC50/IC50 [1]: >2.5 | CC50 at 192 h [2]: > 25 µM | IC50 (Hepatitis B virus): 10.1 µM

[O-][N+](CCc1c[nH]c2ccccc12)(CC1CC1)CC1CC1
CC50 at 192 h [2]: > 100 µM | IC50 (Hepatitis B virus): > 100 µM

CC(C)CCN(CCc1c[nH]c2ccccc12)CCC(C)C
Ratio CC50/IC50 [1]: 102 | CC50 at 192 h [2]: 40.6 µM | IC50 (Hepatitis B virus): 0.4 µM

c1ccc2c(CCN(CC3CCCCC3)CC3CCCCC3)c[nH]c2c1
CC50 at 192 h [2]: > 33.3 µM | IC50 (Hepatitis B virus): > 100 µM

Nc1ccn([C@@H]2CS[C@H](CO)O2)c(=O)n1 [LAMIVUDINE]
Ratio CC50/IC50 [1]: 3557 | CC50 at 192 h [2]: 1170 µM | IC50 (Hepatitis B virus): 0.33 µM

CC(C)CC[N+]([O-])(CCc1c[nH]c2ccccc12)CCC(C)C
CC50 at 192 h [2]: 77.6 µM
